Measured values taken from patent publication US9018173B2, “Materials and methods for suppressing inflammatory and neuropathic pain” (Indiana University Research and Technology Corp., priority 2010, dated 2015).
“Also recorded” adds a separate entry of the source. Residues, ends and D or L forms follow the SMILES beside them.

Legend:
[1] = molecular target: T1, CRMP-2-CaV2.2 interaction (Rattus norvegicus, UniProt Q02294); test: Immunoprecipitation of CRMP-2/CaV2.2 in the presence of peptides; type: binding; settings: spinal cord lysates or rat brains; peptides 10 μM
T1 construct: that could be captured from rat brains; from tissue; host or cells: rat brain / spinal cord lysates (CaV2.2)
T1 sequence (Q02294 whole entry): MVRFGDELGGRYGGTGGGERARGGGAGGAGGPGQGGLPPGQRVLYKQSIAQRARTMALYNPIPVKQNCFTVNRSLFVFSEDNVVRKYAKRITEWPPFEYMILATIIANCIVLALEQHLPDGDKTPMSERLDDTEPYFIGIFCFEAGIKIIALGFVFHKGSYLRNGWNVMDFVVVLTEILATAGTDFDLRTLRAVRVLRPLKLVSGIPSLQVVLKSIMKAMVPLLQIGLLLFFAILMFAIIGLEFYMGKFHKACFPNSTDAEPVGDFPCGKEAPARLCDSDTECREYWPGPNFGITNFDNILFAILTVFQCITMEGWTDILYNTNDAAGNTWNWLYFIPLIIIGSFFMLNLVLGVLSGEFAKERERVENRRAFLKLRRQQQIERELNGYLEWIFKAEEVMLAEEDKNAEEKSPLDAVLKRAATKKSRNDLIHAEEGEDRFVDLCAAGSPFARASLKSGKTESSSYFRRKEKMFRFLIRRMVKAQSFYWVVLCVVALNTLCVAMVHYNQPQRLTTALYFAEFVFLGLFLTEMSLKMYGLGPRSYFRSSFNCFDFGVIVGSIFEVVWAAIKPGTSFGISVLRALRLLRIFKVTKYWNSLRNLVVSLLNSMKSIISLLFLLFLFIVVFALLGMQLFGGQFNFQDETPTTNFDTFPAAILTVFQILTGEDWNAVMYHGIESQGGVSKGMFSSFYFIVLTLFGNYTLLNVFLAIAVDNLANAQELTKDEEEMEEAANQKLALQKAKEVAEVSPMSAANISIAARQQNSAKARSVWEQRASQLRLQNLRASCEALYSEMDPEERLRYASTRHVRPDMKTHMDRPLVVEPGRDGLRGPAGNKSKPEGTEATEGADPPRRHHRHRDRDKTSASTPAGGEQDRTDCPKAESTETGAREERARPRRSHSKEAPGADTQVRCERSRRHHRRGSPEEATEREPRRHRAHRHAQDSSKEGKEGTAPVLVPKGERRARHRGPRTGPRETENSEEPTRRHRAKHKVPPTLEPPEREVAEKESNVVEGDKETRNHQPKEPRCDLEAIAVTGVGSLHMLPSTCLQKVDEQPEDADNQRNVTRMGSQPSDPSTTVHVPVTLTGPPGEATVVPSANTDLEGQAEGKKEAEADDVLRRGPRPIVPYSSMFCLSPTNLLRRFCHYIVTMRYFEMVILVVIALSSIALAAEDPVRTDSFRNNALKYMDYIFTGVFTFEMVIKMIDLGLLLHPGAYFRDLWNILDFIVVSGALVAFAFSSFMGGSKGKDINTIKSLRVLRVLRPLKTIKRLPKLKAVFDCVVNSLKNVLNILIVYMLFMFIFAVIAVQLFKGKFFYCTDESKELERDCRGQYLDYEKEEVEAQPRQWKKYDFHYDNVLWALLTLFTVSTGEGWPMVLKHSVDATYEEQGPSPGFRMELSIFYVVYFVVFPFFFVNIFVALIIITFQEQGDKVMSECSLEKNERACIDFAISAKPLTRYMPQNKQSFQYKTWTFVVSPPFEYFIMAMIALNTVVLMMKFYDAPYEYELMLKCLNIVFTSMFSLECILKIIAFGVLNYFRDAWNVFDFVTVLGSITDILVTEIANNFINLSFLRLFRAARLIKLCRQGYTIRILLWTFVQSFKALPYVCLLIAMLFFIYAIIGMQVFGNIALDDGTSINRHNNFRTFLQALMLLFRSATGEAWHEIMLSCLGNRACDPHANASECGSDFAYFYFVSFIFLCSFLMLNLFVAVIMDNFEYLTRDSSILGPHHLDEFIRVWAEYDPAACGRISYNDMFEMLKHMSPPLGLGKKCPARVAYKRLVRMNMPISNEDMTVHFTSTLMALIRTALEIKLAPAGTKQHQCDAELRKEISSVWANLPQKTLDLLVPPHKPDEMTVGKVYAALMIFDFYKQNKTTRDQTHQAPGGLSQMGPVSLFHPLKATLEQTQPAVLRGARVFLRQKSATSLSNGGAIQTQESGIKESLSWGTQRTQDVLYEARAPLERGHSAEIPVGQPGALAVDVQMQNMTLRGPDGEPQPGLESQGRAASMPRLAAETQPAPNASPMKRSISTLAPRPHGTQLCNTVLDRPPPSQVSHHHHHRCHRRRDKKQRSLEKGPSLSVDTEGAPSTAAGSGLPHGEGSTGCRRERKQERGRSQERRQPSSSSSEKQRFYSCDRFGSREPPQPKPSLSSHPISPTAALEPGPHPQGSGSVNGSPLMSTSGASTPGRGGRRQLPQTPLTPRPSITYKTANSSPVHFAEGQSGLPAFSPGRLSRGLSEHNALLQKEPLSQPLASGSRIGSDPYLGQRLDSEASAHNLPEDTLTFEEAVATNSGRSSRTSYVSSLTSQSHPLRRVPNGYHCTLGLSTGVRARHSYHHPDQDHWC
T1 sequence (P54287 whole entry partner): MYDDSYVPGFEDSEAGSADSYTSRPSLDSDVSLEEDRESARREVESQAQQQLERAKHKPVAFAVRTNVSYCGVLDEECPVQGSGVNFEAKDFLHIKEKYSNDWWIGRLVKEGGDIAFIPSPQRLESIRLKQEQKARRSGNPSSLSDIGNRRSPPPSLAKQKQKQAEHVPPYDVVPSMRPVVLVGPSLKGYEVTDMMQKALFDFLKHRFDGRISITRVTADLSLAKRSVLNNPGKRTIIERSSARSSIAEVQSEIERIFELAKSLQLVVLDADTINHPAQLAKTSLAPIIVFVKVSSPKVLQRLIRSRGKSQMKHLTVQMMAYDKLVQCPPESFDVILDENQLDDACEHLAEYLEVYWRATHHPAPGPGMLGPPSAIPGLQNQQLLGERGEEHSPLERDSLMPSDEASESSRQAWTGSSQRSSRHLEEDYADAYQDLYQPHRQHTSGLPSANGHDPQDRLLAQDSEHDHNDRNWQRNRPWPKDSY
Procedure: Referring now to FIG. 18. […] Peptides (10 μM each) were added for 30 min prior to addition of the CRMP-2-His protein. Representative blot from 12 separate experiments is shown. (FIG. 18.B) In vitro binding of L1-GST and Ct-dis-GST fusion proteins to CRMP-2 in the presence of scramble or CBD3 peptides (10 μM). The purification of the L1 and Ct-dis regions of CaV2.2 has been described by us previously. CRMP-2 bound to L1 and Ct-dis was probed with a CRMP-2 antibody. Representative blot from 4 separate experiments are shown. Similar results were obtained in experiments with spinal cord lysates (FIGS. 18.B and 18D).
Immunoblotting. This was performed as described previously. Rat brain synaptosomes were pre-cleared by a 1-h incubation with 20 μl of a 50% slurry of protein A/G beads (Pierce). The cleared lysate was then incubated overnight with various primary antibodies or rabbit or mouse isotype-specific IgGs (Sigma) as controls. The antibody-captured complexes were recovered with fresh protein A-agarose (for rabbit polyclonal antibodies) or protein A/G-agarose (for mouse monoclonal antibodies) beads (20 μl of original bead slurry/sample) by incubation with lysate/antibody mixture at 4° C. for 2 h. The beads were then washed three times with lysis buffer. Prior to electrophoresis on SDS-polyacrylamide gels, protein samples were boiled in Laemmli sample buffer for 5 min. […]

[2] = test system: formalin-induced nocifensive behavior; test: Formalin test; type: in vivo, rat; settings: 30 μM intraplantar, 30 min before formalin
Procedure: (§1) Referring now to FIG. 16. TAT-CBD3 reduces acute, inflammatory and neuropathic pain. (FIG. 16A) Time course of number of flinches following subcutaneous (dorsal surface of paw) injection of formalin (2.5%; 50 μl saline) in animals pretreated with peptides (3-100 μM; 20 μl dorsal surface of paw) 30 min before formalin (n=4-10). (FIG. 16B) The effect of peptides on number of flinches on formalin-induced phase 1 (0-10 min) and phase 2 (15-60 min). *, p<0.05 versus formalin-injected animals. (FIG. 16C) Formalin induces paw edema. Paw thickness was measured 1 h after injection of saline, formalin, and formalin+peptides (100 μM). *, p<0.05 versus saline-injected animals. (FIG. 16D) Pretreatment with TAT-CBD3 attenuates capsaicin-evoked nocifensive behavior. Vehicle (0.3% DMSO) or peptides (concentrations as indicated) in saline (40 μL) was instilled corneally and nocifensive behavior noted. […]
Behavioral analyses. […] For the eye-wipe test, vehicle, TAT control or TAT CBD3 peptides (30 μM, 40 μl) were pipetted directly into the right eye and the resulting nocifensive behavior was measured. […] This nocifensive behavior was recorded for five minutes and followed by capsaicin (3 μM; 40 μl saline) application into the pretreated eye. […]

[3] = test system: capsaicin-evoked nocifensive behavior; test: Capsaicin eye-wipe test; type: in vivo, rat; settings: peptide alone
Procedure: as §1, with “behavior.” for “behavior. Vehicle (0.3% DMSO) or peptides (concentrations as indicated) in saline (40 μL) was instilled corneally and nocifensive behavior noted.”
Eye-wipe test. […] TAT CBD3 peptide, TAT control peptide or vehicle was pipetted directly into the right eye in a volume of 40 μl and the resulting nocifensive behavior was measured. […] This nocifensive behavior was recorded for five minutes and followed by capsaicin (3 μM in 40 μl saline) application into the pretreated eye. Nocifensive behavior was again quantified for 5 minutes following capsaicin application, as described previously. […] Significant differences between groups were assessed by two-way analysis of variance with Bonferroni post-tests. Data were analyzed with GraphPad Prism 4.0 (GraphPad, San Diego, Calif., USA). […]

| Compound | CRMP-2-CaV2.2 interaction (immunoprecipitation) [1] | formalin-induced flinching, phase 1 and phase 2 [2] | nocifensive behavior on application alone to the cornea [3] |
| --- | --- | --- | --- |
| ARSRLAELRGVPRGL (CBD3) | inhibited; also recorded: inhibits the binding between CRMP-2 and CaV2.2 | displayed blunted nociceptive behaviors in both phases |  |
| CC(C)C[C@H](NC(=O)CNC(=O)[C@H](CCCNC(=N)N)NC(=O)[C@@H]1CCCN1C(=O)[C@@H](NC(=O)CNC(=O)[C@H](CCCNC(=N)N)NC(=O)[C@H](CC(C)C)NC(=O)[C@H](CCC(=O)O)NC(=O)[C@H](C)NC(=O)[C@H](CC(C)C)NC(=O)[C@H](CCCNC(=N)N)NC(=O)[C@H](CO)NC(=O)[C@H](CCCNC(=N)N)NC(=O)[C@H](C)NC(=O)[C@H](CCCNC(=N)N)NC(=O)[C@H](CCCNC(=N)N)NC(=O)[C@H](CCCNC(=N)N)NC(=O)[C@H](CCC(N)=O)NC(=O)[C@H](CCCNC(=N)N)NC(=O)[C@H](CCCNC(=N)N)NC(=O)[C@H](CCCCN)NC(=O)[C@H](CCCCN)NC(=O)[C@H](CCCNC(=N)N)NC(=O)CNC(=O)[C@@H](N)Cc1ccc(O)cc1)C(C)C)C(=O)O [TAT-CBD3] (H-YGRKKRRQRRRARSRLAELRGVPRGL-OH; N-terminus and C-terminus assumed) |  |  | did not induce nocifensive behavior |
